Literature values, collected in US20100202983A1, “SELECTIVELY TARGETED ANTIMICROBIALS FOR THE TREATMENT OF PERIODONTAL DISEASE” (priority 2009, published 2010).

Tested on: S. mutans
Conditions: not given

Substance | efficacy for reducing the biofilms formed by S. mutans, and other microbial pathogenic microbes
M8G2: S. mutans-specific targeting peptide linked via linker peptide to an antimicrobial peptide (TFFRLFNRGGGKNLRIIRKGIHIIKKY; selectively/specifically targeted antimicrobial peptide (STAMP) chimeric polypeptide M8G2) | efficacy has been demonstrated
C16G2: S. mutans-specific targeting peptide linked via linker peptide to an antimicrobial peptide (TFFRLFNRSFTQALGKGGGKNLRIIRKGIHIIKKY; selectively/specifically targeted antimicrobial peptide (STAMP) chimeric polypeptide C16G2) | efficacy has been demonstrated
1903 BD2-21: S. mutans-specific targeting peptide linked via linker peptide to an antimicrobial peptide (NIFEYFLEGGGKLFKFLRKHLL; selectively/specifically targeted antimicrobial peptide (STAMP) chimeric polypeptide 1903-BD2.21) | efficacy has been demonstrated
C16 BD2.21: S. mutans-specific targeting peptide linked via linker peptide to an antimicrobial peptide (TFFRLFNRSFTQALGKGGGKLFKFLRKHLL; selectively/specifically targeted antimicrobial peptide (STAMP) chimeric polypeptide C16-BD2.21) | efficacy has been demonstrated
M8-33: S. mutans-specific targeting peptide linked via linker peptide to an antimicrobial peptide (TFFRLFNRSGGGFKKFWKWFRRF; selectively/specifically targeted antimicrobial peptide (STAMP) chimeric polypeptide M8-33) | efficacy has been demonstrated

Tested on: Porphyromonas gingivalis and Streptococcus mitis
Conditions: Murakami et al., Infect. Immun. 59:3284 (1991)

Substance | inhibition of coaggregation between Porphyromonas gingivalis and Streptococcus mitis
Histatin 5: 24-residue peptide from human saliva with antifungal properties (DSHAKRHHGYKRKFHEKHHSHRGY; histatin 5 peptide) | inhibits coaggregation

Tested on: S. mutans
Conditions: cell culture

Substance | efficacy for reducing the colony forming units of S. mutans
FBRW-16: antimicrobial peptide useful in the present invention (LKRFLKWFKRFGGGRWRWRWF; FBRW-16) | efficacy has been demonstrated
FBα-21: antimicrobial peptide useful in the present invention (RWRRLLKKLHHLLHGGGIKQLLHFFQRF; FBalpha-21) | efficacy has been demonstrated
FBRW-22: antimicrobial peptide useful in the present invention (RWRWRWFGGGFKKFWKWFRRF; FBRW-22) | efficacy has been demonstrated
FBα-20: antimicrobial peptide useful in the present invention (RWRRLLKKLHHLLHGGGFKKFWKWFRRF; FBalpha-20) | efficacy has been demonstrated
FBRW-15: antimicrobial peptide useful in the present invention (IKQLLHFFQRFGGGRWRWRWF; FBRW-15) | efficacy has been demonstrated
FBRW-24: antimicrobial peptide useful in the present invention (RWRWRWFGGGLKRFLKWFKRF; FBRW-24) | efficacy has been demonstrated
